From ChEMBL document CHEMBL1201862, “PubChem BioAssay data set” (2004)
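1) Cells in 96-well plates. 2) Compound, 48 h, 5 concentrations. 3) Linear interpolation between surrounding doses. 4) Unreached endpoint = highest concentration. GI50 marks 50% less growth.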 Calls of active or inactive are those of the source. Rule as the data show it: active = GI50 up to about 1.1 µM and inactive = higher.

Columns and labels:
Test in all cases: DTP human tumour cell line panel, 48 h
CCRF-CEM = test system: CCRF-CEM
NCI-H460 = test system: NCI-H460
T47D = test system: T47D
SW-620 = test system: SW-620
OVCAR-4 = test system: OVCAR-4
K562 = test system: K562
A549 = test system: A549
MOLT-4 = test system: MOLT-4
SF-268 = test system: SF-268
IGROV-1 = test system: IGROV-1
SNB-19 = test system: SNB-19
EKVX = test system: EKVX
SN12C = test system: SN12C
SF-295 = test system: SF-295
PC-3 = test system: PC-3
LOX IMVI = test system: LOX IMVI
COLO 205 = test system: COLO 205
HOP-92 = test system: HOP-92
MCF7 = test system: MCF7
SK-MEL-28 = test system: SK-MEL-28

Structure (SMILES)	GI50 (CCRF-CEM)	GI50 (NCI-H460)	GI50 (T47D)	GI50 (SW-620)	GI50 (OVCAR-4)	GI50 (K562)	GI50 (A549)	GI50 (MOLT-4)	GI50 (SF-268)	GI50 (IGROV-1)	GI50 (SNB-19)	GI50 (EKVX)	GI50 (SN12C)	GI50 (SF-295)	GI50 (PC-3)	GI50 (LOX IMVI)	GI50 (COLO 205)	GI50 (HOP-92)	GI50 (MCF7)	GI50 (SK-MEL-28)
CSc1ccc2c(c1)C(N1CCN(C)CC1)Cc1ccccc1S2 (centres undefined)	0.219 µM (active)	2.47 µM (inactive)	8.04 µM (inactive)	6.01 µM (inactive)	2.3 µM (inactive)	1.94 µM (inactive)	7.18 µM (inactive)	2.47 µM (inactive)	3.43 µM (inactive)	2.17 µM (inactive)	13.3 µM (inactive)	3.34 µM (inactive)	6.28 µM (inactive)	3.83 µM (inactive)	4.3 µM (inactive)	2.01 µM (inactive)	1.98 µM (inactive)	1.49 µM (inactive)	2.36 µM (inactive)	
N#C/C(=C\N1CCNC1=S)C(=O)c1ccc2ccccc2c1		> 100 µM (inactive)	67 µM (inactive)	> 100 µM (inactive)	74 µM (inactive)	> 100 µM (inactive)	> 100 µM (inactive)	37.4 µM (inactive)	> 100 µM (inactive)	> 100 µM (inactive)	> 100 µM (inactive)	> 100 µM (inactive)	> 100 µM (inactive)	> 100 µM (inactive)	97.1 µM (inactive)	> 100 µM (inactive)	> 100 µM (inactive)	> 100 µM (inactive)	> 100 µM (inactive)	> 100 µM (inactive)
COc1ccccc1/C=C/C1=NN(c2cccc(S(=O)(=O)O)c2)C2(C1)C(Cl)C(=O)N2c1nc2ccccc2s1 (centres undefined)	13.5 µM (inactive)	37.8 µM (inactive)	12.1 µM (inactive)	> 100 µM (inactive)	42.2 µM (inactive)	31.4 µM (inactive)	71.4 µM (inactive)	34 µM (inactive)	> 100 µM (inactive)	28.5 µM (inactive)	> 84.7 µM (inactive)	43.4 µM (inactive)	> 84.1 µM (inactive)	89.3 µM (inactive)	76.6 µM (inactive)	29.7 µM (inactive)	88.9 µM (inactive)		40.7 µM (inactive)	> 100 µM (inactive)
O=C1C=C/C(=N\N=C(c2ccccc2)c2ccccc2)O1	8.49 µM (inactive)		> 10 µM (inactive)	> 10 µM (inactive)	> 10 µM (inactive)	> 10 µM (inactive)	> 10 µM (inactive)	> 10 µM (inactive)	> 10 µM (inactive)	> 10 µM (inactive)		> 10 µM (inactive)	> 10 µM (inactive)	> 10 µM (inactive)	> 10 µM (inactive)	> 10 µM (inactive)	> 10 µM (inactive)	> 10 µM (inactive)	> 10 µM (inactive)	> 10 µM (inactive)
CSc1[nH]nc(N)c1C(=O)Nc1ccc(C)cc1	26.1 µM (inactive)	60.1 µM (inactive)	18.4 µM (inactive)	48.1 µM (inactive)	46.2 µM (inactive)	69.5 µM (inactive)	51.6 µM (inactive)	26.2 µM (inactive)	47.5 µM (inactive)		> 100 µM (inactive)	32.2 µM (inactive)	96.4 µM (inactive)	65 µM (inactive)	33.7 µM (inactive)	38.6 µM (inactive)	55 µM (inactive)	19.5 µM (inactive)	39.5 µM (inactive)	48.8 µM (inactive)
COc1ccc(/N=C2\C(=N/c3ccc(OC)cc3)N(c3ccccc3[N+](=O)[O-])C(=S)N2c2ccc(OC)cc2)cc1			26 µM (inactive)	> 100 µM (inactive)		35.5 µM (inactive)	> 100 µM (inactive)	21.8 µM (inactive)	> 100 µM (inactive)	> 100 µM (inactive)	> 100 µM (inactive)	99.3 µM (inactive)	> 100 µM (inactive)	51.8 µM (inactive)	91.6 µM (inactive)		17.1 µM (inactive)	> 100 µM (inactive)	> 100 µM (inactive)	> 100 µM (inactive)
O=C(OCC(Cl)(Cl)Cl)N1CC[C@H](C2CCCCC2)C1	15.5 µM (inactive)	18.6 µM (inactive)	15.3 µM (inactive)		16.6 µM (inactive)	21.1 µM (inactive)	14.9 µM (inactive)	28.1 µM (inactive)	21 µM (inactive)	16.4 µM (inactive)	16.5 µM (inactive)	16.9 µM (inactive)	37.2 µM (inactive)	16.2 µM (inactive)	21.6 µM (inactive)	19.5 µM (inactive)	18.8 µM (inactive)		18.6 µM (inactive)	
COC(=O)C1CCC(=O)N1C(c1cc(OC)c(OC)c(OC)c1)c1cccc2ccccc12 (centres undefined)		> 100 µM (inactive)	> 100 µM (inactive)	> 100 µM (inactive)		75.9 µM (inactive)	> 100 µM (inactive)	13.8 µM (inactive)	15.3 µM (inactive)	> 100 µM (inactive)	> 100 µM (inactive)	> 100 µM (inactive)	> 100 µM (inactive)	> 100 µM (inactive)	> 100 µM (inactive)	> 100 µM (inactive)		38.2 µM (inactive)	> 100 µM (inactive)	> 100 µM (inactive)
